# Measurements published in patent US5541194A (priority 1987, dated 1996).
# Where two headings read alike, the source gives them in different places.
# Tests used:
# muscarinic receptors [1] = assay: Radio ligand binding: displacement of muscarinic agonist 3H-Oxotremorine-M (3H-OXO-M) in rat cerebral cortex; parameters: species or system Hooded Lister rats; conditions: displacement of 2 nM 3H-OXO-M; rat cerebral cortex membranes; 37° C., 30 min; 2 mM magnesium chloride; ^+ tested as the oxalate salt, ^++ tested as the hydrochloride salt
# muscarinic receptors [2] = type: binding, Hooded Lister rats; conditions: displacement of 0.27 nM 3H-QNB; rat cerebral cortex membranes; 37° C., 30 min; ^+ tested as the oxalate salt, ^++ tested as the hydrochloride salt
compound,measurement,setting,value
"Cc1cc([C@@H]2CN3CC[C@@H]2C3)on1 (relative stereo) [Example E9, (±) exo-3-(3-Methyl-1,2-oxazol-5-yl)-1-azabicyclo[2.2.1]heptane]",IC50,muscarinic receptors [1],102 nM
same,IC50,muscarinic receptors [2],7500 nM
"Cc1cc(C2CN3CCC2CC3)on1 (racemic) [Example E6, (±)3-(3-Methyl-1,2-oxazol-5-yl)-1-azabicyclo[2.2.2]octane]",IC50,muscarinic receptors [1],395 nM
same,IC50,muscarinic receptors [2],4300 nM
"c1ncc(C2CN3CCC2C3)o1 (racemic) [Example E12, (±) exo and endo-3-(1,3-Oxazol-5-yl)-1-azabicyclo[2.2.1]heptane]",IC50,muscarinic receptors [1],150 nM
same,IC50,muscarinic receptors [2],29000 nM
"Cc1ncc([C@@H]2CN3CC[C@@H]2C3)o1 (relative stereo) [Example E8A, (±) exo- and endo-3-(2-Methyl-1,3-oxazol-5-yl)-1-azabicyclo[2.2.1]heptane]",IC50,muscarinic receptors [1],24 nM
same,IC50,muscarinic receptors [2],7500 nM
"Cc1ccc([C@@H]2CN3CC[C@@H]2C3)o1 (relative stereo) [Example E5, (±) exo-3-(5-Methyl-fur-2-yl)-1-azabicyclo[2.2.1]heptane]",IC50,muscarinic receptors [1],115 nM
same,IC50,muscarinic receptors [2],3200 nM
"Cc1ncc(C2CN3CCC2CC3)o1 (racemic) [Example E7, (±) 3-(2-Methyl-1,3-oxazol-5-yl)-1-azabicyclo[2.2.2]octane]",IC50,muscarinic receptors [1],105 nM
same,IC50,muscarinic receptors [2],4400 nM
"CCc1ncc(C2CN3CCC2C3)o1 (racemic) [Example E14, (±) 3-(2-Ethyl-1,3-oxazol-5-yl)-1-azabicyclo[2.2.1]heptane]",IC50,muscarinic receptors [1],800 nM
same,IC50,muscarinic receptors [2],9600 nM
"c1coc([C@@H]2CN3CC[C@@H]2C3)c1 (relative stereo) [Example E4, (±) exo-3-(Fur-2-yl)-1-azabicyclo[2.2.1]heptane]",IC50,muscarinic receptors [1],88 nM
same,IC50,muscarinic receptors [2],7000 nM
"c1ncc(C2CN3CCC2CC3)o1 (racemic) [Example E11, (±) 3-(1,3-Oxazol-5-yl)-1-azabicyclo[2.2.2]octane]",IC50,muscarinic receptors [1],480 nM
same,IC50,muscarinic receptors [2],24000 nM
"c1cc([C@@H]2CN3CC[C@@H]2C3)on1 (relative stereo) [Example E13, (±) exo-3-(1,2-Oxazol-5-yl)-1-azabicyclo[2.2.1]heptane]",IC50,muscarinic receptors [1],173 nM
same,IC50,muscarinic receptors [2],30300 nM
"c1cc(C2CN3CCC2CC3)on1 (racemic) [Example E1, (±) 3-(1,2-Oxazol-5-yl)-1-azabicyclo[2.2.2]octane]",IC50,muscarinic receptors [1],477 nM
same,IC50,muscarinic receptors [2],15500 nM
"c1cc(C2CN3CCC2CC3)co1 (racemic) [Example E10, (±) 3-(Fur-3-yl)-1-azabicyclo[2.2.2]octane]",IC50,muscarinic receptors [1],834 nM
same,IC50,muscarinic receptors [2],19500 nM
